# Laboratory results as given in PubChem BioAssay (NCI).
#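 At the GI50, growth is halved. TGI denotes the concentration required for complete inhibition of growth.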
# Legend:
# Experiment in all cases: DTP human tumour cell line panel, 384-well format
# U251 glioblastoma = test system: U251 glioblastoma
# MALME-3M melanoma = test system: MALME-3M melanoma
# HL-60(TB) leukemia = test system: HL-60(TB) leukemia
# SNB-75 CNS = test system: SNB-75 CNS
# PC-3 prostate = test system: PC-3 prostate
# IGROV1 ovarian = test system: IGROV1 ovarian
# K-562 leukemia = test system: K-562 leukemia
# A549 NSCLC = test system: A549 NSCLC
# SK-MEL-5 melanoma = test system: SK-MEL-5 melanoma
# SF-539 CNS = test system: SF-539 CNS
# 786-0 renal = test system: 786-0 renal
# KM12 colon = test system: KM12 colon
# HT29 colon = test system: HT29 colon
SMILES,GI50 (U251 glioblastoma) [µM],TGI (U251 glioblastoma) [µM],GI50 (MALME-3M melanoma) [µM],TGI (MALME-3M melanoma) [µM],GI50 (HL-60(TB) leukemia) [µM],TGI (HL-60(TB) leukemia) [µM],GI50 (SNB-75 CNS) [µM],TGI (SNB-75 CNS) [µM],GI50 (PC-3 prostate) [µM],TGI (PC-3 prostate) [µM],GI50 (IGROV1 ovarian) [µM],TGI (IGROV1 ovarian) [µM],GI50 (K-562 leukemia) [µM],TGI (K-562 leukemia) [µM],GI50 (A549 NSCLC) [µM],TGI (A549 NSCLC) [µM],GI50 (SK-MEL-5 melanoma) [µM],TGI (SK-MEL-5 melanoma) [µM],GI50 (SF-539 CNS) [µM],TGI (SF-539 CNS) [µM],other results
COc1cc2nccc(Oc3ccc(NC(=O)C4(C(=O)Nc5ccc(F)cc5)CC4)cc3)c2cc1OC,5.32,17.9,2,5.44,2.71,5.24,1.29,4.35,3.8,15.4,1.64,3.8,0.295,1.07,2.46,6.13,2.19,6.58,1.32,4.74,GI50 ([…]-0 renal): 4.47 µM; TGI (786-0 renal): 19 µM; GI50 (KM12 colon): 0.0614 µM; TGI (KM12 colon): 14.3 µM; GI50 (HT29 colon): 3.17 µM; TGI (HT29 colon): 12.3 µM
CN(C)C(=O)c1cc2cnc(Nc3ccc(N4CCNCC4)cn3)nc2n1C1CCCC1,30.8,> 46.4,11.1,31.2,0.866,26.3,24.5,55,17.8,> 80.5,26.2,98.8,10.8,29.7,23.5,> 84.1,28,> 97.1,22.2,68.2,GI50 ([…]-0 renal): 6.77 µM; TGI (786-0 renal): 36 µM; GI50 (KM12 colon): 2.51 µM; TGI (KM12 colon): 35.5 µM; GI50 (HT29 colon): 24.9 µM; TGI (HT29 colon): > 51.6 µM
O=C(Nc1cccc(C(F)(F)F)c1)Nc1cc(S(=O)(=O)NC2CC2)ccc1-c1ccsc1,3.43,11.3,6.91,18.9,1.93,3.52,4.25,15.6,3.92,13.3,8.86,21.7,3.45,11.5,4.02,13.7,2.32,5.61,5.91,15,GI50 ([…]-0 renal): 4.09 µM; TGI (786-0 renal): 14.3 µM; GI50 (KM12 colon): 4.02 µM; TGI (KM12 colon): 12.7 µM; GI50 (HT29 colon): 4.35 µM; TGI (HT29 colon): 14.9 µM
